The nature of series [1]: B12 blood levels after inhalation of methylcobalamin solution (vaporizer/electronic cigarette). The series is classed as in vivo, human. As to the method:
A new method for vitamin B12 supplementation involves determining that a person has a disorder causing the person to have a reduced ability to process one or more forms of B-vitamins and convert them into a usable form in the body and administering methylcobalamin to the person in aerosol form or in water vapor, for inhalation. In some embodiments, the person is determined to have a MTHFR gene mutation. In some embodiments, the methylcobalamin is administered as part of a mixture also comprising vegetable glycerin and water. In some embodiments, the determined disorder includes anemia, pernicious anemia, and/or advanced age. In some embodiments, administering methylcobalamin involves administering at least 500 mcg of methylcobalamin in one day or in one week. For example, 500 mcg of methylcobalamin may be administered in a single daily or weekly dose. Depending on the concentration of the methylcobalamin in the solution used to administer the methylcobalamin, 500 mcg of methylcobalamin may be administered in 0.01 mL or more of solution. The concentration of methylcobalamin in solution for a vaporizer/electronic cigarette application in some embodiments is 1,000 mcg/mL or higher, in preferred embodiments 2,000 mcg/mL or higher. […]

A short description of series [2]: bioavailability/absorption of methylcobalamin in inhalable form compared with other forms of B12. Particulars: persons with a methylenetetrahydrofolate reductase (MTHFR) genetic mutation. The series is classed as in vivo, human. As to the method:
When a person is determined to have MTHFR or another condition that causes the person to have a reduced ability to process B-vitamin supplements and convert them into a usable form in the body, the person may be administered methylcobalamin by inhalation for proper B12 supplementation.

The results in this text go back to patent US12042511B1, “Inhalation delivery methods and compositions for vitamin B12” (priority 2017, dated 2024).

For `C/C1=C2/[N-][C@H]([C@H](CC(N)=O)[C@@]2(C)CCC(=O)NC[C@@H](C)OP(=O)([O-])O[C@H]2[C@@H](O)[C@@H](n3cnc4cc(C)c(C)cc43)O[C@@H]2CO)[C@]2(C)N=C(/C(C)=C3N=C(/C=C4N=C1[C@@H](CCC(N)=O)C\4(C)C)[C@@H](CCC(N)=O)[C@]\3(C)CC(N)=O)[C@@H](CCC(N)=O)[C@]2(C)CC(N)=O.[CH3-].[Co+3]` [methylcobalamin], the “levels of B12 in a user's blood” value is “no effect on the user's blood levels of B12” in series [1] (lower concentrations (below 1,000 mcg/mL) of methylcobalamin in solution); “substantially increasing levels of B12 in a user's blood” in series [1] (methylcobalamin concentration in solution 1,000 mcg/mL or higher, vaporizer/electronic cigarette, immediately after treatment (within about 5 minutes) and persistently). Also, the “absorption relative to other forms of B12” value in series [2] is “more easily absorbed than other forms of B12”.
